From patent US20130096097A1, “PHARMACEUTICAL MULTIMERIC PARTICLES, AND MANUFACTURING METHOD FOR SAME” (JAPAN SCIENCE AND TECHNOLOGY AGENCY, priority 2010, published 2013)

What was measured:
[1] = Particle size of dimer nanoparticles in aqueous dispersion made by reprecipitation; assay type: physicochemical; conditions: 5 mM DMSO solution injected into water at room temperature, final concentration 0.05 mM
Description: (§1) Dimer of SN-38 and succinic acid was weighed out to be 5 mM, and dissolved in DMSO 150 μl. Using water as poor solvent, 100 μl of the DMSO solution was injected into water 10 ml with syringe at room temperature, thus aqueous dispersion solution of dimer nanoparticles was prepared. Final concentration of the aqueous dispersion solution was 0.05 mM. The particle size was 50 nm (FIG. 1).
as §1, with “tetramethylene diisocyanate” for “succinic acid”, “in” for “in DMSO”, “μl of DMSO.” for “μl.”, “2).” for “1).”
as §1, with “of betamethasone valerate” for “of SN-38”, “in” for “in DMSO”, “150 μl of DMSO.” for “150 μl.”, “was 150” for “was 50”, “(FIG. 2).” for “(FIG. 1).”

[2] = tested on: Human liver cancer cell lines HepG2; test: In vitro anticancer activity, cell viability by Cell Counting Kit-8; assay type: cell-based; conditions: for anticancer activity against HepG2 (cell viability): 0.15625-10 μM in terms of SN-38 monomer, 48 hours, FIG. 3
Description: Human liver cancer cell lines HepG2 was seeded on 96-well plate in 2×10^4 cells/well. Next day, irinotecan, SN-38 bulk crystal, SN-38 diester dimer nanoparticle, and SN-38 diisocyanate dimer nanoparticle were added to the HepG2 cell culture in an amount to be 0.15625, 0.3125, 0.625, 1.25, 2.5, 5 or 10 μM in terms of SN-38 monomer. After cultivating for 48 hours, the cell viability was measured by a colorimetric method using Cell Counting Kit-8 (manufactured by DOJINDO) and microplate reader (manufactured by BIO-RAD). […] In addition, it became obvious that when SN-38 was dimerized via ester bond or urethane bond, or further nanoparticulated, the anticancer activity thereof can be retained (FIG. 3).
Further, two kinds of aqueous dispersion solution of SN-38 dimer nanoparticles were left at room temperature for about one week, thus prepared aging sample.
In FIG. 3 and FIG. 4, there was no difference in the anticancer activity against HepG2 between the binding modes included in the SN-38 dimer nanoparticles, namely, ester bond and urethane bond. That is, both bonds are expected to be decomposed at about the same speed in the solution, and SN-38 monomers are formed. To confirm this, SN-38 is dimerized with low degradable ether bond, further subjected to aging, then studied the anticancer activity against HepG2. The treatment concentration at this time was made 0.1, 1, 10 μM in terms of SN-38.

[3] = cited from earlier work

CCCCC(=O)O[C@]1(C(=O)COC(=O)CCC(=O)OCC(=O)[C@@]2(OC(=O)CCCC)[C@@H](C)C[C@H]3[C@@H]4CCC5=CC(=O)C=C[C@]5(C)[C@@]4(F)[C@@H](O)C[C@@]32C)[C@@H](C)C[C@H]2[C@@H]3CCC4=CC(=O)C=C[C@]4(C)[C@@]3(F)[C@@H](O)C[C@@]21C [Compound 19-(b)]
particle size [1]: 150 nm

CCc1c2c(nc3ccc(OC(=O)N4CCC(N5CCCCC5)CC4)cc13)-c1cc3c(c(=O)n1C2)COC(=O)[C@]3(O)CC [irinotecan, 7-ethyl-10-[4-(1-piperidino)-1-piperidino]carbonyloxycamptothecin, reference compound]
anticancer activity against HepG2 (cell viability) [2]: almost no anticancer activity

CC[C@@]1(O)C(=O)OCc2c1cc1n(c2=O)Cc2cc3ccccc3nc2-1 [Camptothecin]
water-solubility [3]: extremely insoluble in water

CCc1c2c(nc3ccc(OC(=O)CCC(=O)Oc4ccc5nc6c(c(CC)c5c4)Cn4c-6cc5c(c4=O)COC(=O)C5(O)CC)cc13)-c1cc3c(c(=O)n1C2)COC(=O)C3(O)CC (centres unmarked) [Compound 18-(b), succinic acid bis(7-ethylcamptothecin-10-yl)ester]
particle size [1]: 50 nm | anticancer activity against HepG2 (cell viability) [2]: remarkable anticancer activity

CCc1c2c(nc3ccc(OC(=O)NCCCCNC(=O)Oc4ccc5nc6c(c(CC)c5c4)Cn4c-6cc5c(c4=O)COC(=O)C5(O)CC)cc13)-c1cc3c(c(=O)n1C2)COC(=O)C3(O)CC (centres unmarked) [Compound 18-(c), butylene bis(7-ethylcamptothecin-10-yl)amide]
particle size [1]: 50 nm | anticancer activity against HepG2 (cell viability) [2]: remarkable anticancer activity

CCc1c2c(nc3ccc(O)cc13)-c1cc3c(c(=O)n1C2)COC(=O)[C@]3(O)CC [SN-38, 10-hydroxy-7-ethylcamptothecin, reference compound]
water-solubility [3]: extremely poor | anticancer activity against HepG2 (cell viability) [2]: remarkable anticancer activity

CCc1c2c(nc3ccc(OC/C=C/COc4ccc5nc6c(c(CC)c5c4)Cn4c-6cc5c(c4=O)COC(=O)C5(O)CC)cc13)-c1cc3c(c(=O)n1C2)COC(=O)C3(O)CC (centres unmarked) [Compound 18-(d), bis(7-ethylcamptothecin-10-oxy)2-buten ether]
anticancer activity against HepG2 ([2]; 0.1, 1, 10 μM in terms of SN-38, FIG. 5): almost disappeared | aging effect on anticancer activity against HepG2 ([2]; 0.1, 1, 10 μM in terms of SN-38, aged sample, FIG. 5): little
